Measurements reported in the supplement of paper PMC8967900.

Columns and labels:
Assay in all cases: selective drug sensitivity score (sDSS, relative to normal bone marrow) (sDSS (score)); higher = more potent and effective on the cell line relative to normal bone marrow cells
Conditions in all cases: 72 h
COG-LL-317 = tested on: COG-LL-317
NALM-16 = tested on: NALM-16
KOPN-8 = tested on: KOPN-8
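Further: ALL cell lines in 384-well plates, five doses spanning 10,000-fold, each plate scaled between vehicle and 100 µmol/L benzalkonium chloride controls, sDSS an adapted area-under-curve metric.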

SMILES | selective drug sensitivity score (COG-LL-317) | selective drug sensitivity score (NALM-16) | selective drug sensitivity score (KOPN-8)
Cc1c(-c2ccc(N3CCc4cccc(C(=O)Nc5nc6ccccc6s5)c4C3)nc2C(=O)O)cnn1CC12CC3CC(CC(C3)C1)C2 (top concentration 1000 nM) | 25.9 | -2.26 | 0.74
O=C(NOC[C@H](O)CO)c1ccc(F)c(F)c1Nc1ccc(I)cc1F (top concentration 1000 nM) | -1.66 | 2.74 | 10.1
CO[C@@H](C)Cn1c(=O)n(C)c2cnc3ccc(-c4cncc(C(C)(C)O)c4)cc3c21 (top concentration 2500 nM) | 0.78 | -0.52 | 13.9
Cc1cccc(CC(=O)N2CCc3c2ccc(-c2cn(C)c4ncnc(N)c24)c3F)n1 (top concentration 2500 nM) | -0.68 | -0.68 | -0.68
CNC(=O)c1ccccc1Nc1nc(Nc2ccc3c(c2OC)CCC[C@H](N2CCN(CCO)CC2)C3)ncc1Cl (top concentration 5000 nM) | -2.14 | -2.44 | 0.76
COc1cc2ncnc(Oc3cccc(NC(=O)Nc4cc(C(C)(C)C(F)(F)F)on4)c3)c2cc1OC (top concentration 10000 nM) | 0 | 0 | 16.7
C[C@@H](Oc1cc(-n2cnc3ccc(CN4CCN(C)CC4)cc32)sc1C(N)=O)c1ccccc1C(F)(F)F (top concentration 10000 nM) | 25.4 | 17.4 | 19.9
Nc1nccc(-c2c(-c3ccc(F)cc3)ncn2C2CCCCC2)n1 (top concentration 10000 nM) | 4.4 | 0.9 | 9.2
O=C(O)c1ccc(-c2c[nH]c3ncc(-c4ccccc4)cc23)cc1C1CCCC1 (top concentration 10000 nM) | 2.36 | -1.44 | 4.16
C[C@@H]1CN(CC(=O)Nc2ccc3c(c2)Cc2cccc(-c4cc(=O)cc(N5CCOCC5)o4)c2S3)C[C@H](C)O1 (top concentration 25000 nM) | -1.78 | -2.18 | 5.72
COc1ccc2[nH]cc(/C=C3\C(=O)Nc4ccc(NC(=O)CCN5CCCCC5)cc43)c2c1 (top concentration 50000 nM) | 2.58 | -2.42 | 1.38
Cc1nn(C)c(COc2ccc(N3CCN(S(=O)(=O)N(C)C)CC3)cc2)c1-c1cccc2c(CCCOc3cccc4ccccc34)c(C(=O)O)n(CCN3CCOCC3)c12 (top concentration 50000 nM) | 2.16 | 4.36 | 10.1
C[C@H](Nc1ncnc2[nH]cnc12)c1cc2ccc(F)cc2nc1-c1ccccn1 [AMG319] (top concentration 1000 nM) | -1.42 | -1.42 | 6.38
C=CCn1c(=O)c2cnc(Nc3ccc(N4CCN(C)CC4)cc3)nc2n1-c1cccc(C(C)(C)O)n1 [AZD1775] (top concentration 10000 nM) | 20.5 | 6.64 | 14.1
NC(=O)Nc1cc(-c2cccc(F)c2)sc1C(=O)N[C@H]1CCCNC1 [AZD7762] (top concentration 1000 nM) | 7.6 | 0.5 | 3.4
Cc1cc([C@@H](C)Nc2ccccc2C(=O)O)c2nc(N3CCOCC3)cc(=O)n2c1 [AZD-6482] (top concentration 2500 nM) | -0.18 | 0.42 | 8.22
CN(C)Cc1c(C(=O)NCCOc2ccc(C(=O)NO)cc2)oc2ccccc12 [Abexinostat] (top concentration 10000 nM) | 2.36 | 0.56 | 9.26
S=C(NCc1ccc2c(c1)OCO2)N1CCN(c2ncnc3c2oc2ccccc23)CC1 [Amuvatinib] (top concentration 10000 nM) | 0.96 | 0.86 | 8.76
CC(=O)OC[C@H]1O[C@@H]([S-])[C@H](OC(C)=O)[C@@H](OC(C)=O)[C@@H]1OC(C)=O.CCP(CC)CC.[Au+] [Auranofin] (top concentration 2500 nM) | 3.44 | -0.56 | 11.6
CNC(=O)c1ccccc1Sc1ccc2c(/C=C/c3ccccn3)n[nH]c2c1 [Axitinib] (top concentration 10000 nM) | 8.26 | -2.34 | 6.06

SMILES | selective drug sensitivity score (COG-LL-317) | selective drug sensitivity score (NALM-16) | selective drug sensitivity score (KOPN-8)
Cc1c(N)nc([C@H](CC(N)=O)NC[C@H](N)C(N)=O)nc1C(=O)N[C@H](C(=O)N[C@H](C)[C@@H](O)[C@H](C)C(=O)N[C@H](C(=O)NCCc1nc(-c2nc(C(=O)NCCC[S+](C)C)cs2)cs1)[C@@H](C)O)[C@@H](O[C@@H]1O[C@@H](CO)[C@@H](O)[C@H](O)[C@@H]1O[C@H]1O[C@H](CO)[C@@H](O)[C@H](OC(N)=O)[C@@H]1O)c1c[nH]cn1 [Bleomycin] (top concentration 10000 nM) | 5.14 | -1.86 | 7.34
CC(C)C[C@H](NC(=O)[C@H](Cc1ccccc1)NC(=O)c1cnccn1)B(O)O [Bortezomib] (top concentration 1000 nM) | 3.02 | 2.32 | 3.42
CCC/C=C/C=C/C(=O)O[C@H]1/C(=C/C(=O)OC)C[C@H]2C[C@H]([C@@H](C)O)OC(=O)C[C@H](O)C[C@@H]3C[C@H](OC(C)=O)C(C)(C)[C@](O)(C[C@@H]4C/C(=C/C(=O)OC)C[C@H](/C=C/C(C)(C)[C@]1(O)O2)O4)O3 [Bryostatin_1] (top concentration 100 nM) | -6.82 | -6.92 | 26.9
CO[C@H]1CC[C@H](N2C(=O)CNc3ncc(-c4ccc(C(C)(C)O)nc4)nc32)CC1 [CC-223] (top concentration 10000 nM) | -0.48 | 0.72 | 8.12
CN(C)c1cc2c(cc1Sc1nc3c(N)nccc3n1CCNCC(C)(C)C)OCO2 [CUDC-305] (top concentration 10000 nM) | 7.62 | 1.12 | 4.32
CO[C@H]1C(=O)[C@]2(C)[C@@H](OC)C[C@H]3OC[C@@]3(OC(C)=O)[C@H]2[C@H](OC(=O)c2ccccc2)[C@]2(O)C[C@H](OC(=O)[C@H](O)[C@@H](NC(=O)OC(C)(C)C)c3ccccc3)C(C)=C1C2(C)C [Cabazitaxel] (top concentration 1000 nM) | 26.2 | 11.4 | 17.9
C=CC(=O)Nc1cc2c(Nc3ccc(F)c(Cl)c3)ncnc2cc1OCCCN1CCOCC1 [Canertinib] (top concentration 10000 nM) | 2.96 | -0.14 | 4.36
CC(C)C[C@H](NC(=O)[C@H](CCc1ccccc1)NC(=O)CN1CCOCC1)C(=O)N[C@@H](Cc1ccccc1)C(=O)N[C@@H](CC(C)C)C(=O)[C@@]1(C)CO1 [Carfilzomib] (top concentration 1000 nM) | 1.06 | -3.64 | 1.46
O=C(c1ccc(F)c(F)c1Nc1ccc(I)cc1F)N1CC(O)([C@@H]2CCCCN2)C1 [Cobimetinib] (top concentration 1000 nM) | -3.68 | -1.38 | 2.12
COc1c(OCCCN2CCOCC2)ccc2c1N=C(NC(=O)c1cnc(N)nc1)N1CCN=C21 [Copanlisib] (top concentration 1000 nM) | 6.08 | 2.58 | 4.98
Cn1c(=O)n(-c2ccc(C(C)(C)C#N)cc2)c2c3cc(-c4cnc5ccccc5c4)ccc3ncc21 [Dactolisib] (top concentration 1000 nM) | 2.26 | 0.86 | 15.1
O=C(/C=C/c1cccnc1)NCCCCC1CCN(C(=O)c2ccccc2)CC1 [Daporinad] (top concentration 1000 nM) | 17.7 | 2.96 | 19.8
CC(=O)N(O)CCCCCNC(=O)CCC(=O)N(O)CCCCCNC(=O)CCC(=O)N(O)CCCCCN [Deferoxamine] (top concentration 10000 nM) | 18.4 | 4.66 | 10.4
Cc1cc(Nc2cc(N3CCN(C)CC3)nc(/C=C/c3ccccc3)n2)n[nH]1 [ENMD-2076] (top concentration 10000 nM) | 5.14 | -0.06 | 8.34
Cc1cnc(Nc2ccc(OCCN3CCCC3)cc2)nc1Nc1cccc(S(=O)(=O)NC(C)(C)C)c1 [Fedratinib] (top concentration 10000 nM) | -3.36 | -2.16 | -0.76
COc1ccc(-c2nc(N3CCOCC3)c3sc(CN(C)c4ncc(C(=O)NO)cn4)cc3n2)cn1 [Fimepinostat (CUDC-907)] (top concentration 10000 nM) | 7.58 | 1.78 | 10.9
CCOC(=O)CCNc1cc(N2CCc3ccccc3CC2)nc(-c2ccccn2)n1 [GSK-J4] (top concentration 100000 nM) | -2.78 | -8.38 | -8.88
Cc1cc(Nc2cc(CN3CCOCC3)c3nc(C)c(Cc4ccc(Cl)cc4F)n3n2)n[nH]1 [Gandotinib] (top concentration 10000 nM) | 8.68 | -1.52 | 8.28
NC(=O)NO [Hydroxyurea] (top concentration 1000000 nM) | 15.4 | 0.86 | 11.9
Cc1ccc(NC(=O)c2ccc(CN3CCN(C)CC3)cc2)cc1Nc1nccc(-c2cccnc2)n1 [Imatinib] (top concentration 10000 nM) | 1.36 | -0.44 | -0.04
